From US9346757B2, “Pyridine derivatives and their use in the treatment of conditions associated with pathological thrombus formation” (SANOFI, priority 2012, dated 2016)

Experiments:
Assay type in all cases: cell-based
LPA receptor LPAR5 [1] = target: T1, LPA receptor LPAR5 (Homo sapiens, UniProt Q9H1C0); experiment: FLIPR assay, intracellular Ca2+ release in human mast cell line HMC-1; conditions: human mast cell line HMC-1, LPA-stimulated Ca2+ release, compound added 10 minutes prior LPA
T1 construct: two cell lines were used with high LPAR5 expression, the human mast cell line HMC-1; endogenous in cells; host or cells: HMC-1 human mast cell line
Description: (§1) B) Use of the Fluorometric Imaging Plate Reader (FLIPR) Assay for the Determination of Intracellular Ca^2+ Release in Human Mast Cell Line HMC-1 and the Murine Microglia Cell Line BV-2
(§2) The ability of the compounds of the formula I to inhibit or bind the LPA receptor LPAR5 can be assessed by determining the intracellular Ca^2+ release in human or animal cells. For the analysis of activating potential of LPA and the inhibitory effects of compounds of the formula I two cell lines were used with high LPAR5 expression, the human mast cell line HMC-1 and the murine microglia cell line BV-2 (FIGS. 1 and 2). For the FLIPR assay using human mast cells in a 96-well-format, HMC-1 suspension cells from flask culture were harvested, resuspended and counted. 14×10^6 HMC-1 cells were transferred into a new 50 ml tube, centrifuged for 3 minutes at 540×g. The resulting cell pellet at the bottom of the tube was resuspended with 15 ml loading buffer (loading buffer contained HBSS buffer (pH 7.4), 0.1% BSA (bovine serum albumin), 2 μM FLUO-4 dye; HBSS buffer (pH 7.4) contained 1×HBSS, 20 mM HEPES, 0.01% Pluronic F-127, 2.5 mM Probenicid).
Cells in loading buffer were incubated for 45-60 minutes at 37° C. After incubation cells were centrifuged for 3 minutes at 540×g and resuspended with 21 ml of HBSS buffer (pH 7.4). Each well of a poly-D-lysine coated 96-well-plate was filled with 150 μl cell solution, an equivalent of 100 000 cells/well. The 96-well-plate was centifuged for 2 minutes at 100×g (without brake) prior a recovery time of 30 minutes at 37° C. After this procedure cells were stimulated with LPA (in HBSS pH 7.4 and 0.1% BSA) to determine the EC50 of LPA in HMC-1 cells. For the determination of the inhibitory effect of compounds of the formula I, test compounds were added to the cells in the 96-well-plate 10 minutes prior the addition of LPA. Results of the assay are expressed as % activation, and are calculated using maximum peak of activation (Amax). […]

[2] = target: T2, platelet LPA receptor LPAR5 (Homo sapiens, UniProt Q9H1C0); experiment: Aggregation assay for washed human blood platelets (LPA-induced); conditions: reduction of maximal aggregation, 5 min preincubation at 37° C.
T2 construct: the cellular pellet, consisting of human blood platelets was then dissolved in 10 ml buffer T; endogenous in cells; host or cells: washed human blood platelets from healthy volunteers
Procedure: A) Aggregation Assay for Washed Human Blood Platelets (Thrombocytes)
Whole blood was collected from healthy volunteers using 3×20 ml syringes containing each 1/10 volume of buffered citrate. The anticoagulated whole blood was transferred into 50 ml polypropylene conical tubes (30 ml per tube). The tubes were centrifuged for 10 minutes at 150×g at room temperature without using the centrifuge brake. This procedure results in a lower phase of cellular components and a supernatant (upper phase) of platelet rich plasma (PRP). The PRP phase was collected from each tube and pooled for each donor. […] The platelet concentration was determined using a ABX Micros 60 counter. […] Platelet concentration in this solution was determined and buffer T was added to obtain a final concentration of 3.5×10^5 platelets per ml.
After 10 minutes at room temperature, 1 μl PGI2 per ml platelet solution was added and distributed into new 10 ml tubes. […] Aggregation was measured over 6 minutes at 37° C. with 1200 rpm (revolutions per minute) stirring. Results of the assay are expressed as % activation, and are calculated using maximum aggregation (Tmax) or area under curve (AUC) of the absorbance over 6 minutes. The inhibitory effect (IC50) of the test compounds was determined as the reduction of the maximal aggregation. […]

LPA receptor LPAR5 [3] = target: T3, LPA receptor LPAR5 (Mus musculus, UniProt Q149R9); experiment: FLIPR assay, intracellular Ca2+ release in murine microglia cell line BV-2; conditions: murine microglia cell line BV-2, LPA-stimulated Ca2+ release, compound added 10 minutes prior LPA
T3 construct: two cell lines were used with high LPAR5 expression, the human mast cell line HMC-1 and the murine microglia cell line BV-2; endogenous in cells; host or cells: BV-2 murine microglia cell line
Description: as §1, §2
Cells in loading buffer were incubated for 45-60 minutes at 37° C. […] Results of the assay are expressed as % activation, and are calculated using maximum peak of activation (Amax). […]

T1 sequence (Q9H1C0 whole entry): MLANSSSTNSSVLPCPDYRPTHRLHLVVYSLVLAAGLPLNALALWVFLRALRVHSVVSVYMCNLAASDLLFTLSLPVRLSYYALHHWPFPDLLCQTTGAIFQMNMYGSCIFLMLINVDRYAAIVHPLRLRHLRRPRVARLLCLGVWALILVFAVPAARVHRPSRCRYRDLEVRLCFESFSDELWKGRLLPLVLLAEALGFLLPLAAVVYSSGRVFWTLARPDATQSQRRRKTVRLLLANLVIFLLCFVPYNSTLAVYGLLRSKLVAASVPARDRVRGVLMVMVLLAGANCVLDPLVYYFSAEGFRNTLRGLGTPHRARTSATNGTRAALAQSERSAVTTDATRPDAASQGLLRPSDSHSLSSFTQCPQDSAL
T3 sequence (Q149R9 whole entry): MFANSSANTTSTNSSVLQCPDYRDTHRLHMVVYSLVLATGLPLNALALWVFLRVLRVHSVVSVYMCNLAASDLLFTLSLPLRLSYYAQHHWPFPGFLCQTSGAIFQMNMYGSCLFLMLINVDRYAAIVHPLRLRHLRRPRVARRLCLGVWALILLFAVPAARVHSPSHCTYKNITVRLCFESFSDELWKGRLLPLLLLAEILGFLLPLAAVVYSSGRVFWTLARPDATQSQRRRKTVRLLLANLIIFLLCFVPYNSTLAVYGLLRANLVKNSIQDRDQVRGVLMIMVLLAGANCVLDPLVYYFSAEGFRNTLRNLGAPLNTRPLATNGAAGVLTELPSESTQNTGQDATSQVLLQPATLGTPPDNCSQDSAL
T2 sequence (Q9H1C0 whole entry): as the sequence (Q9H1C0 whole entry) above

## Cc1nc(-c2ccc(Cl)cc2)c(-c2ccc(Cl)cc2Cl)cc1COC(C)(C)C(=O)NCCCC(=O)O [Example 15, 4-{2-[6-(4-Chloro-phenyl)-5-(2,4-dichloro-phenyl)-2-methyl-pyridin-3-ylmethoxy]-2-methyl-propionylamino}-butyric acid]
LPA receptor LPAR5 [1]
  IC50: 1.8 µM

## Cc1nc(-c2ccc(C(F)(F)F)cc2)c(-c2ccc(Cl)cc2Cl)cc1COC(C)C(=O)Nc1ccc(C(=O)O)cc1 (centres unmarked) [Example 1, 4-{2-[5-(2,4-Dichloro-phenyl)-2-methyl-6-(4-trifluoromethyl-phenyl)-pyridin-3-ylmethoxy]-propionylamino}-benzoic acid]
LPA receptor LPAR5 [1]
  IC50: 3.7 µM

## Cc1nc(-c2ccc(Cl)cc2)c(-c2ccc(Cl)cc2Cl)cc1COC(C)(C)C(=O)NCc1ccc(C(=O)O)cc1 [Example 14, 4-({2-[6-(4-Chloro-phenyl)-5-(2,4-dichloro-phenyl)-2-methyl-pyridin-3-ylmethoxy]-2-methyl-propionylamino}-methyl)-benzoic acid]
[2]
  IC50: 3.6 µM
LPA receptor LPAR5 [1]
  IC50: 0.13 µM
LPA receptor LPAR5 [3]
  IC50: 3.2 µM
